According to publication PMC7265341, “Quantifying CDK inhibitor selectivity in live cells” (Nature Communications, 2020):
pIC50: −log10 of the molar value. Several values for one entry are separate records, joined by “and”; a condition that tells them apart may be missing. Equal entries are not always repeated. Where two headings read alike, the source gives them in different places.

How the values were obtained:
CDK1/Cyclin E1 = CDK1/Cyclin E1 (Homo sapiens, UniProt P06493); test: NanoBRET live-cell target engagement, CDK1-NanoLuc/Cyclin E1 in HEK-293; assay type: binding; details: CDK1/E1; for pIC50: read-out: IC50
CDK2/Cyclin E1 = CDK2/Cyclin E1 (Homo sapiens, UniProt P24941); test: NanoBRET live-cell target engagement, CDK2-NanoLuc/Cyclin E1 in HEK-293; assay type: binding; details: 10 µM
CDK3/Cyclin E1 = CDK3/Cyclin E1 (Homo sapiens, UniProt Q00526); test: NanoBRET live-cell target engagement, CDK3-NanoLuc/Cyclin E1 in HEK-293; assay type: binding
CDK4/Cyclin D1 = CDK4/Cyclin D1 (Homo sapiens, UniProt P11802); test: NanoBRET live-cell target engagement, NanoLuc-CDK4/Cyclin D1 in HEK-293; assay type: binding; details: CDK4/D1; for pIC50: read-out: IC50
Chain of CDK4/Cyclin D1 (P11802 whole entry): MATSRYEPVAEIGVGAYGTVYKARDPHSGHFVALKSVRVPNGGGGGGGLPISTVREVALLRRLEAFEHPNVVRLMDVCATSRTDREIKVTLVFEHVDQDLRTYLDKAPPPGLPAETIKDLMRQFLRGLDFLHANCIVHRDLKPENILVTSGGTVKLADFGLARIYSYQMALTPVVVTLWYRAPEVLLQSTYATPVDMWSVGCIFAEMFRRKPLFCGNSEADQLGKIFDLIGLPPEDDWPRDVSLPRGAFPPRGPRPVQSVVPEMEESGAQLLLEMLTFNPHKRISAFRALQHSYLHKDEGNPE
Chain of CDK4/Cyclin D1 (P24385 whole entry partner): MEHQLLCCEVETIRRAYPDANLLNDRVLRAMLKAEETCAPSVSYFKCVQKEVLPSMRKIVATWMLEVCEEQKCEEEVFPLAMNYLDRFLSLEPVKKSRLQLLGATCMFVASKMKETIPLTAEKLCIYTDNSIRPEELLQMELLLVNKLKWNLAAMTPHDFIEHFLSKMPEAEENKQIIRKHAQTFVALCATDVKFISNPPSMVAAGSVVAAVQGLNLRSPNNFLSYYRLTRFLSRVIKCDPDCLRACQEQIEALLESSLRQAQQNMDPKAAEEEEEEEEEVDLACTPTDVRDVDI

CDK5/CDK5R1 = CDK5/CDK5R1 (Homo sapiens, UniProt Q00535); test: NanoBRET live-cell target engagement, CDK5-NanoLuc/CDK5R1 in HEK-293; assay type: binding; details: CDK5/CDK5R1; for pIC50: read-out: IC50
Chain of CDK5/CDK5R1 (Q00535 whole entry): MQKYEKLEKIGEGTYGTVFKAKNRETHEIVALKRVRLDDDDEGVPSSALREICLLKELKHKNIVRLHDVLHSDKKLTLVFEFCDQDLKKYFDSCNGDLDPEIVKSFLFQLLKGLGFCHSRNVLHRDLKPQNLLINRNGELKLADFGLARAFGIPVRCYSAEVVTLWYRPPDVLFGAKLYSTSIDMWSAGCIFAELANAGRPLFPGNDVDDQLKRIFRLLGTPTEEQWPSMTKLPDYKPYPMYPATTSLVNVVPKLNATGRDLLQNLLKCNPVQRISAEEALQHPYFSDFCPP
Chain of CDK5/CDK5R1 (Q15078 whole entry partner): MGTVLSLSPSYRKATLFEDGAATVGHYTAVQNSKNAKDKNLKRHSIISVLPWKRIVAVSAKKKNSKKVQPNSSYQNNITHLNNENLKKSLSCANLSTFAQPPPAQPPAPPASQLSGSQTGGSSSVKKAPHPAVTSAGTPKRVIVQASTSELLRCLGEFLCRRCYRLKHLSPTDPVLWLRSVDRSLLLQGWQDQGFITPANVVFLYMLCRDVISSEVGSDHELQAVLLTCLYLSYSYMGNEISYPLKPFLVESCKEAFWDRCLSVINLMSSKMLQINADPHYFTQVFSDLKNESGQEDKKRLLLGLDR

CDK6/Cyclin D1 = CDK6/Cyclin D1 (Homo sapiens, UniProt Q00534); test: NanoBRET live-cell target engagement, NanoLuc-CDK6/Cyclin D1 in HEK-293; assay type: binding; details: CDK6/D1; for pIC50: read-out: IC50
CDK7 = CDK7 (Homo sapiens, UniProt P50613); test: NanoBRET live-cell target engagement, NanoLuc-CDK7 in HEK-293; assay type: binding; details: CDK7; for pIC50: read-out: IC50
Chain of CDK7 (P50613 whole entry): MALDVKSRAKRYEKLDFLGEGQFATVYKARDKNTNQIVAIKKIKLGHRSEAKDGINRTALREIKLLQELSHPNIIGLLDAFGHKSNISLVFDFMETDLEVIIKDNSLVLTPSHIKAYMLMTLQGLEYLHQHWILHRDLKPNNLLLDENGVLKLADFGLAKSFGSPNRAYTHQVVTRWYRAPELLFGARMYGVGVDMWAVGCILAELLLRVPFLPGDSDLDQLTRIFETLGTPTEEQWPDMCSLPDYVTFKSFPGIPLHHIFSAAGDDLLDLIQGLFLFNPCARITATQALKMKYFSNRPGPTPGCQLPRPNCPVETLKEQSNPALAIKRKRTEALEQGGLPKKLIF

CDK8/Cyclin C = CDK8/Cyclin C (Homo sapiens, UniProt P49336); test: NanoBRET live-cell target engagement, NanoLuc-CDK8/Cyclin C in HEK-293; assay type: binding; details: CDK8/C
CDK11B/Cyclin L2 = CDK11B/Cyclin L2 (Homo sapiens, UniProt P21127); test: NanoBRET live-cell target engagement, CDK11B-NanoLuc/Cyclin L2 in HEK-293; assay type: binding; details: CDK11b/L2; for pIC50: read-out: IC50
CDK12/Cyclin K = CDK12/Cyclin K (Homo sapiens, UniProt Q9NYV4); test: NanoBRET live-cell target engagement, CDK12-NanoLuc/Cyclin K in HEK-293; assay type: binding; details: CDK12/K
Chain of CDK12/Cyclin K (Q9NYV4 1-1481 isoform Q9NYV4-2): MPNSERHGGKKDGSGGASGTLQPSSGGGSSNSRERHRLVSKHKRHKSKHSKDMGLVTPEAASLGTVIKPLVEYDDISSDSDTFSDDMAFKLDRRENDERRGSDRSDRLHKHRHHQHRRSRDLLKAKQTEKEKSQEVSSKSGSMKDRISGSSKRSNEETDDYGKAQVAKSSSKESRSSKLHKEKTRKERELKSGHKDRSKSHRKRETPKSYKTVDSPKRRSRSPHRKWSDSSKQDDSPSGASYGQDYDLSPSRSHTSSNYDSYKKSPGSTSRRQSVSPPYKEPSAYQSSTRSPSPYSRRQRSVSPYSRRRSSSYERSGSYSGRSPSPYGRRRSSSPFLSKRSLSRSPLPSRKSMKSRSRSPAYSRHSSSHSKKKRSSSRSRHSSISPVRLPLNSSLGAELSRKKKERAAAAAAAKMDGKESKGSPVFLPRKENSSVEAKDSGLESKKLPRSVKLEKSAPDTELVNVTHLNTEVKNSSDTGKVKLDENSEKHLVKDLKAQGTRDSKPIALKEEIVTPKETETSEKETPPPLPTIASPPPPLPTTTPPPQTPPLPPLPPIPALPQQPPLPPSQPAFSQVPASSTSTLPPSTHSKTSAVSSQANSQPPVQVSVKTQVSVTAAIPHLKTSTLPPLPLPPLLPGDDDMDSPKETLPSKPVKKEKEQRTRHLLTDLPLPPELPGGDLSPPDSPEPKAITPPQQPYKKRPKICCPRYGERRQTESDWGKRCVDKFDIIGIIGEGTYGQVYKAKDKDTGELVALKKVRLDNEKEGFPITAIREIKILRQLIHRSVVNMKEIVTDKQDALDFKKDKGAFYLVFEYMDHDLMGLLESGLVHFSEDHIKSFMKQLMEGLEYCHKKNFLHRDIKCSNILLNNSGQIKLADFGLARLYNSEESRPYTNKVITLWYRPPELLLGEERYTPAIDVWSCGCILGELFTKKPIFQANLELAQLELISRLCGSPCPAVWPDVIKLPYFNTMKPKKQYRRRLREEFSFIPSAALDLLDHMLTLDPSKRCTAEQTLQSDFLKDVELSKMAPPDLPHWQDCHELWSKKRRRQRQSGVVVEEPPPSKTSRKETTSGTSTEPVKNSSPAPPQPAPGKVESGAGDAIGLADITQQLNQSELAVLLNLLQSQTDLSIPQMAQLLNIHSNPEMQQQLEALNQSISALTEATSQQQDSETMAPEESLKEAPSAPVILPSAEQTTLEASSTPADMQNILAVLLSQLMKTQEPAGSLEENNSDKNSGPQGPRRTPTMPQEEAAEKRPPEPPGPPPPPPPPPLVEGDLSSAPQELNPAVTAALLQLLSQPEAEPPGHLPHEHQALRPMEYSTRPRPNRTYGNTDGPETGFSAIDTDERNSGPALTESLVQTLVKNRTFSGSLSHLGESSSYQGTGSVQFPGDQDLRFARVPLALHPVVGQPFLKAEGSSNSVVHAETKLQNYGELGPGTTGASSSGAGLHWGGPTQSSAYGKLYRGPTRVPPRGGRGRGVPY
Chain of CDK12/Cyclin K (O75909 whole entry partner): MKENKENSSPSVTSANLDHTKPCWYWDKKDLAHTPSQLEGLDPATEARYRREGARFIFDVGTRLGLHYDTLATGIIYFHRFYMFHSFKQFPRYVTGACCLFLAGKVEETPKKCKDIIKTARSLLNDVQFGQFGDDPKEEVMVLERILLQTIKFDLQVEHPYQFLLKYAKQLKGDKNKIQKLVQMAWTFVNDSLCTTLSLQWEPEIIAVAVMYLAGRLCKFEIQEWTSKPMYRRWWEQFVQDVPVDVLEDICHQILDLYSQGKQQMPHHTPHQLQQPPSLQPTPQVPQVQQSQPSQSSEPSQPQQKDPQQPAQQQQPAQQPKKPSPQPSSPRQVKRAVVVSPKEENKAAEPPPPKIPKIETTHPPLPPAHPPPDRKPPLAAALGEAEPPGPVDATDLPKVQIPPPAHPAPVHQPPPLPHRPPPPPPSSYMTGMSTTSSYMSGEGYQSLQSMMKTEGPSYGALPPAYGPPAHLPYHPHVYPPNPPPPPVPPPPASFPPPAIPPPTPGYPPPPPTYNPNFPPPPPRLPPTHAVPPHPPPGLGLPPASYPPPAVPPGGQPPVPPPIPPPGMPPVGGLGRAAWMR

CDK13/Cyclin K = CDK13/Cyclin K (Homo sapiens, UniProt Q14004); test: NanoBRET live-cell target engagement, CDK13-NanoLuc/Cyclin K in HEK-293; assay type: binding; details: CDK13/K
CDK14/Cyclin Y = CDK14/Cyclin Y (Homo sapiens, UniProt O94921); test: NanoBRET live-cell target engagement, CDK14-NanoLuc/Cyclin Y in HEK-293; assay type: binding; details: CDK14/Y; for pIC50: read-out: IC50
Chain of CDK14/Cyclin Y (O94921 whole entry): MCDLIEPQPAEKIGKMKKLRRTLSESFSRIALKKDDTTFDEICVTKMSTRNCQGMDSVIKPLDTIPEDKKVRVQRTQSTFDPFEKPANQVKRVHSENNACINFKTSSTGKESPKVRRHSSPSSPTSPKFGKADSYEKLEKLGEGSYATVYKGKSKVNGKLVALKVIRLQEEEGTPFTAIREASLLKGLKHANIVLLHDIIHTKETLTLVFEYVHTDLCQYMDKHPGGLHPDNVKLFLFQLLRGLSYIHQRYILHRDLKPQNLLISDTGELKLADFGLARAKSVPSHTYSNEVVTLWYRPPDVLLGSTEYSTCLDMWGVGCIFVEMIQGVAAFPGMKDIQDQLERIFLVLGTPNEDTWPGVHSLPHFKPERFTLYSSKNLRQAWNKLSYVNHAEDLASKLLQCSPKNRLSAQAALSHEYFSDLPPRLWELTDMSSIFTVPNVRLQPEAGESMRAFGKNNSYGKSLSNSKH
Chain of CDK14/Cyclin Y (Q8ND76 whole entry partner): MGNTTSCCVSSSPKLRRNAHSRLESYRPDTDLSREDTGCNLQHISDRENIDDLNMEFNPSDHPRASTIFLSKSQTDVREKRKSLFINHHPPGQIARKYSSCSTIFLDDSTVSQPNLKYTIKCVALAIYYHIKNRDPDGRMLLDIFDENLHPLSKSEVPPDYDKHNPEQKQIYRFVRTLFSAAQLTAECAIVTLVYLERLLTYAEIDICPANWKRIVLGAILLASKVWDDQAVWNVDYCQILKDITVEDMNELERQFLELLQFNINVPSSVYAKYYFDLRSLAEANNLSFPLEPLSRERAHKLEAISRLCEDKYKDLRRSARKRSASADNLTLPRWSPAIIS

CDK15/Cyclin Y = CDK15/Cyclin Y (Homo sapiens, UniProt Q96Q40); test: NanoBRET live-cell target engagement, NanoLuc-CDK15/Cyclin Y in HEK-293; assay type: binding; details: CDK15/Y; for pIC50: read-out: IC50
CDK16/Cyclin Y = CDK16/Cyclin Y (Homo sapiens, UniProt Q00536); test: NanoBRET live-cell target engagement, CDK16-NanoLuc/Cyclin Y in HEK-293; assay type: binding; details: CDK16/Y; for pIC50: read-out: IC50
CDK17/Cyclin Y = CDK17/Cyclin Y (Homo sapiens, UniProt Q00537); test: NanoBRET live-cell target engagement, CDK17-NanoLuc/Cyclin Y in HEK-293; assay type: binding; details: CDK17/Y; for pIC50: read-out: IC50
CDK18/Cyclin Y = CDK18/Cyclin Y (Homo sapiens, UniProt Q07002); test: NanoBRET live-cell target engagement, CDK18-NanoLuc/Cyclin Y in HEK-293; assay type: binding; details: CDK18/Y; for pIC50: read-out: IC50
CDK20/Cyclin H = CDK20/Cyclin H (Homo sapiens, UniProt Q8IZL9); test: NanoBRET live-cell target engagement, NanoLuc-CDK20/Cyclin H in HEK-293; assay type: binding; details: CDK20/H
CDK19/Cyclin C = CDK19/Cyclin C (Homo sapiens, UniProt Q9BWU1); test: NanoBRET live-cell target engagement, NanoLuc-CDK19/Cyclin C in HEK-293; details: CDK19/C
CDK10/Cyclin L2 = CDK10/Cyclin L2 (Homo sapiens, UniProt Q15131); test: NanoBRET live-cell target engagement, CDK10-NanoLuc/Cyclin L2 in HEK-293; details: CDK10/L2
Chain of CDK10/Cyclin L2 (Q15131 whole entry): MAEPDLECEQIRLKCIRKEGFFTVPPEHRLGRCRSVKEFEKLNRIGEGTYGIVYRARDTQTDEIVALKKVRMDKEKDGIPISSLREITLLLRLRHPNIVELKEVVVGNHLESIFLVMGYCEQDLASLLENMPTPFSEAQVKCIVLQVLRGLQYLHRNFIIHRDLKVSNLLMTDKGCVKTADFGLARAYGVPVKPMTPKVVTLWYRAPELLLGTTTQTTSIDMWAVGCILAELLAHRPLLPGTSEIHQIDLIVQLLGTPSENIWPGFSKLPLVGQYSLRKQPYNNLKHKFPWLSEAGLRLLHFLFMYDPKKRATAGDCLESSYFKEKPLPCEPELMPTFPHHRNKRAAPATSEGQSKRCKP

For `CS(=O)(=O)N1CCC(NC(=O)c2[nH]ncc2NC(=O)c2c(Cl)cccc2Cl)CC1` [NVP-LCQ195], the “Inhibition at 10µM (%)” value (CDK1/Cyclin E1; average) was 92.5%, the pIC50 (CDK1/Cyclin E1; average (± SEM where n=3)) was 7.08 and the “Inhibition at 10µM (%)” value (CDK1/Cyclin E1; experiment 1) was 94.8%. The pIC50 (CDK1/Cyclin E1; experiment 1) was 7.24, the “Inhibition at 10µM (%)” value (CDK1/Cyclin E1; experiment 2) was 90.2% and the pIC50 (CDK1/Cyclin E1; experiment 2) was 6.97. The “Inhibition at 10µM (%)” value (CDK2/Cyclin E1) was 99.5% and 98.9%, the “Inhibition at 10µM (%)” value (CDK3/Cyclin E1; CDK3/E1, average) was 97.9% and the pIC50 (CDK3/Cyclin E1; CDK3/E1, average (± SEM where n=3), read-out: IC50) was 7.44. For the same compound, the “Inhibition at 10µM (%)” value (CDK3/Cyclin E1; CDK3/E1, experiment 1) was 98.1%, the pIC50 (CDK3/Cyclin E1; CDK3/E1, experiment 1, read-out: IC50) was 7.44 and the “Inhibition at 10µM (%)” value (CDK3/Cyclin E1; CDK3/E1, experiment 2) was 97.6%. The pIC50 (CDK3/Cyclin E1; CDK3/E1, experiment 2, read-out: IC50) was 7.44, the pIC50 (CDK3/Cyclin E1; live HEK-293, 2 h, mean ± S.E.M. (n=3) or mean (n=2), read-out: IC50 for CDK/cyclin complexes, CDK3/E1) was 7.44 and the “Inhibition at 10µM (%)” value (CDK4/Cyclin D1; average) was 94.3%. The pIC50 (CDK4/Cyclin D1; average (± SEM where n=3)) was 7.82, the “Inhibition at 10µM (%)” value (CDK4/Cyclin D1; experiment 1) was 100.8% and the pIC50 (CDK4/Cyclin D1; experiment 1) was 7.72. The “Inhibition at 10µM (%)” value (CDK4/Cyclin D1; experiment 2) was 87.9%, the pIC50 (CDK4/Cyclin D1; experiment 2) was 7.96 and the “Inhibition at 10µM (%)” value (CDK5/CDK5R1; average) was 93.1%. For the same compound, the pIC50 (CDK5/CDK5R1; average (± SEM where n=3)) was 7.51, the “Inhibition at 10µM (%)” value (CDK5/CDK5R1; experiment 1) was 90.4% and the pIC50 (CDK5/CDK5R1; experiment 1) was 7.43. For the same compound, the “Inhibition at 10µM (%)” value (CDK5/CDK5R1; experiment 2) was 95.7%, the pIC50 (CDK5/CDK5R1; experiment 2) was 7.60 and the “Inhibition at 10µM (%)” value (CDK6/Cyclin D1; average) was 99.2%. For the same compound, the pIC50 (CDK6/Cyclin D1; average (± SEM where n=3)) was 7.82, the “Inhibition at 10µM (%)” value (CDK6/Cyclin D1; experiment 1) was 98.6% and the pIC50 (CDK6/Cyclin D1; experiment 1) was 7.74. For the same compound, the “Inhibition at 10µM (%)” value (CDK6/Cyclin D1; experiment 2) was 99.9%, the pIC50 (CDK6/Cyclin D1; experiment 2) was 7.92 and the pIC50 (CDK7; average (± SEM where n=3)) was 7.16. The “Inhibition at 10µM (%)” value (CDK7; experiment 1) was 86.7%, the pIC50 (CDK7; experiment 1) was 7.17 and the “Inhibition at 10µM (%)” value (CDK7; experiment 2) was 89.1%. The pIC50 (CDK7; experiment 2) was 7.15, the “Inhibition at 10µM (%)” value (CDK8/Cyclin C; average) was 31.8% and the “Inhibition at 10µM (%)” value (CDK8/Cyclin C; experiment 1) was 33.3%. For the same compound, the “Inhibition at 10µM (%)” value (CDK8/Cyclin C; experiment 2) was 30.3%, the “Inhibition at 10µM (%)” value (CDK11B/Cyclin L2; average) was 94.8% and the pIC50 (CDK11B/Cyclin L2; average (± SEM where n=3)) was 7.43. The “Inhibition at 10µM (%)” value (CDK11B/Cyclin L2; experiment 1) was 95.4%, the pIC50 (CDK11B/Cyclin L2; experiment 1) was 7.46 and the “Inhibition at 10µM (%)” value (CDK11B/Cyclin L2; experiment 2) was 94.2%. For the same compound, the pIC50 (CDK11B/Cyclin L2; experiment 2) was 7.41, the “Inhibition at 10µM (%)” value (CDK12/Cyclin K; average) was 24.3% and the “Inhibition at 10µM (%)” value (CDK12/Cyclin K; experiment 1) was 26.4%. For the same compound, the “Inhibition at 10µM (%)” value (CDK12/Cyclin K; experiment 2) was 22.1%, the “Inhibition at 10µM (%)” value (CDK13/Cyclin K; average) was 20.5% and the “Inhibition at 10µM (%)” value (CDK13/Cyclin K; experiment 1) was 29.4%. For the same compound, the “Inhibition at 10µM (%)” value (CDK13/Cyclin K; experiment 2) was 11.5%, the “Inhibition at 10µM (%)” value (CDK14/Cyclin Y; average) was 90.1% and the pIC50 (CDK14/Cyclin Y; average (± SEM where n=3)) was 6.33. The “Inhibition at 10µM (%)” value (CDK14/Cyclin Y; experiment 1) was 90.7%, the pIC50 (CDK14/Cyclin Y; experiment 1) was 6.22 and the “Inhibition at 10µM (%)” value (CDK14/Cyclin Y; experiment 2) was 89.6%. The pIC50 (CDK14/Cyclin Y; experiment 2) was 6.48, the “Inhibition at 10µM (%)” value (CDK15/Cyclin Y; average) was 92.4% and the pIC50 (CDK15/Cyclin Y; average (± SEM where n=3)) was 6.42. For the same compound, the “Inhibition at 10µM (%)” value (CDK15/Cyclin Y; experiment 1) was 93.0%, the pIC50 (CDK15/Cyclin Y; experiment 1) was 6.27 and the “Inhibition at 10µM (%)” value (CDK15/Cyclin Y; experiment 2) was 91.9%. The pIC50 (CDK15/Cyclin Y; experiment 2) was 6.66, the pIC50 (CDK16/Cyclin Y; average (± SEM where n=3)) was 7.89 and the “Inhibition at 10µM (%)” value (CDK16/Cyclin Y; experiment 1) was 92.7%. For the same compound, the pIC50 (CDK16/Cyclin Y; experiment 1) was 7.96, the “Inhibition at 10µM (%)” value (CDK16/Cyclin Y; experiment 2) was 92.6% and the pIC50 (CDK16/Cyclin Y; experiment 2) was 7.85. For the same compound, the “Inhibition at 10µM (%)” value (CDK17/Cyclin Y; average) was 92.4%, the pIC50 (CDK17/Cyclin Y; average (± SEM where n=3)) was 7.96 and the “Inhibition at 10µM (%)” value (CDK17/Cyclin Y; experiment 1) was 92.3%. For the same compound, the pIC50 (CDK17/Cyclin Y; experiment 1) was 7.85, the “Inhibition at 10µM (%)” value (CDK17/Cyclin Y; experiment 2) was 92.4% and the pIC50 (CDK17/Cyclin Y; experiment 2) was 8.11. For the same compound, the “Inhibition at 10µM (%)” value (CDK18/Cyclin Y; average) was 97.0%, the pIC50 (CDK18/Cyclin Y; average (± SEM where n=3)) was 6.62 and the “Inhibition at 10µM (%)” value (CDK18/Cyclin Y; experiment 1) was 93.5%. The pIC50 (CDK18/Cyclin Y; experiment 1) was 6.51, the “Inhibition at 10µM (%)” value (CDK18/Cyclin Y; experiment 2) was 100.6% and the pIC50 (CDK18/Cyclin Y; experiment 2) was 6.78. For the same compound, the “Inhibition at 10µM (%)” value (CDK20/Cyclin H; experiment 1) was 26.0%, the “Inhibition at 10µM (%)” value (CDK20/Cyclin H; experiment 2) was 16.0% and the “Inhibition at 10µM (%)” value (CDK19/Cyclin C; average) was 37.8%. The “Inhibition at 10µM (%)” value (CDK19/Cyclin C; experiment 1) was 38.7%, the “Inhibition at 10µM (%)” value (CDK19/Cyclin C; experiment 2) was 37.0% and the “Inhibition at 10µM (%)” value (CDK10/Cyclin L2; average) was 70.2%. For the same compound, the “Inhibition at 10µM (%)” value (CDK10/Cyclin L2; experiment 1) was 74.4% and the “Inhibition at 10µM (%)” value (CDK10/Cyclin L2; experiment 2) was 66.1%.
